Test results reported in patent US20260007133A1, “HERBICIDAL COMPOSITION COMPRISING AZINE COMPOUNDS” (BASF SE, priority 2022, published 2026).
Where two headings read alike, the source gives them in different places.

Assays:
Format in all cases: in vivo
Geranium pusillum = experiment: Greenhouse pre-emergence (PRE) herbicidal test on GERPU; settings: Geranium pusillum, pre-emergence, GERPU PRE, use rate 8 gai/ha
Summary of the method: (§1)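 Herbicidal effect is scored from 0 (no damage) to 100 (no emergence or above-ground parts destroyed), 20 days after treatment. Application is pre-emergent onto sown pots, with components given as a 5% by weight emulsion concentrate in the spray liquor.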

Amaranthus retroflexus = experiment: Greenhouse post-emergence (POST) herbicidal test on AMARE; settings: Amaranthus retroflexus, post-emergence
Summary of the method: (§2)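 For this test, compounds formulated as a 5% by weight emulsion concentrate were diluted into spray liquor and applied post-emergence. Species were kept at 10-25° C or 20-35° C and injury was scored at 20 DAT on a 0–100 scale.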

Commelina benghalensis = experiment: Greenhouse pre-emergence (PRE) herbicidal test on COMBE; settings: Commelina benghalensis, pre-emergence; for inhibition at 4 g/ha: use rate 4 gai/ha
Summary of the method: (§3)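 Pre-emergence greenhouse assay: sown loamy-sand pots (humus approx. 3.0%) were kept under transparent hoods until rooting, then grown at species-appropriate 10-25° C or 20-35° C. Response ratings of 0 (no damage) to 100 (no plants emerged) were recorded 20 days after application.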

Euphorbia heterophylla = experiment: Greenhouse pre-emergence (PRE) herbicidal test on EPHHL; settings: Euphorbia heterophylla, pre-emergence
Summary of the method: as §3

Setaria viridis = experiment: Greenhouse pre-emergence (PRE) herbicidal test on SETVI; settings: Setaria viridis, pre-emergence, 480 h, 20 DAT
Summary of the method: as §1

Echinochloa crus-galli = experiment: Greenhouse post-emergence (POST) herbicidal test on ECHCG
Summary of the method: as §2

Brachiaria decumbens = experiment: Greenhouse pre-emergence (PRE) herbicidal test on BRADC; settings: Urochloa decumbens, BRADC PRE, use rate 2 gai/ha
Summary of the method: as §1

SMILES: COc1c(Cl)cc(F)c(F)c1Nc1nc(N)nc(C(C)(C)F)n1 [Compound I-3]
- inhibition at 8 g/ha (Geranium pusillum): 15%
- pest or weed control at 8 g/ha (Amaranthus retroflexus; 432 h, POST, AMARE, I-3 solo 8 gai/ha, 18 DAT): 90%
- inhibition at 2 g/ha (Amaranthus retroflexus; 480 h, POST, AMARE, 2 gai/ha, 20 DAT, read-out: % activity solo application): 45%
- inhibition at 4 g/ha (Amaranthus retroflexus; 480 h, POST, AMARE, use rate 4 gai/ha, 20 DAT): 50%
- inhibition at 2 g/ha (Amaranthus retroflexus; AMARE POST, use rate 2 gai/ha, read-out: % activity): 60%
- inhibition at 8 g/ha (Amaranthus retroflexus; AMARE POST, use rate 8 gai/ha, read-out: % activity): 75%
- inhibition at 2 g/ha (Amaranthus retroflexus; POST, AMARE, use rate 2 gai/ha, read-out: % activity): 70%
- pest or weed control at 2 g/ha (Commelina benghalensis; 432 h, PRE, COMBE, I-3 solo 2 gai/ha, 18 DAT, read-out: % activity): 50%
- inhibition at 2 g/ha (Commelina benghalensis; 480 h, COMBE PRE, 20 DAT, use rate 2 gai/ha, read-out: % activity): 0%
- inhibition at 8 g/ha (Commelina benghalensis; 480 h, COMBE PRE, 20 DAT, use rate 8 gai/ha, read-out: % activity): 75%
- pest or weed control at 8 g/ha (Commelina benghalensis; 480 h, PRE, 8 gai/ha, 20 DAT): 75%
- inhibition at 2 g/ha (Commelina benghalensis; 480 h, PRE, COMBE, 2 gai/ha, 20 DAT, read-out: % activity solo application): 10%
- inhibition at 8 g/ha (Commelina benghalensis; 480 h, PRE, COMBE, 8 gai/ha, 20 DAT, read-out: % activity solo application): 10%
- inhibition at 2 g/ha (Commelina benghalensis; 480 h, PRE, COMBE, use rate 2 gai/ha, 20 DAT, read-out: solo application % activity): 10%
- inhibition at 4 g/ha (Commelina benghalensis; 480 h, PRE, COMBE, 20 DAT): 35%
- inhibition at 8 g/ha (Commelina benghalensis; 480 h, PRE, COMBE, use rate 8 gai/ha, 20 DAT, read-out: % activity): 70%
- inhibition at 8 g/ha (Commelina benghalensis; 480 h, PRE, COMBE, use rate 8 gai/ha, 20 DAT, read-out: solo application % activity): 10%
- inhibition at 2 g/ha (Commelina benghalensis; 480 h, PRE, use rate 2 gai/ha, 20 DAT, read-out: % activity): 10%
- inhibition at 8 g/ha (Commelina benghalensis; 480 h, PRE, use rate 8 gai/ha, 20 DAT, read-out: % activity): 35%
- inhibition at 8 g/ha (Commelina benghalensis; COMBE PRE, use rate 8 gai/ha, read-out: % activity): 60%
- inhibition at 2 g/ha (Commelina benghalensis; PRE, COMBE, use rate 2 gai/ha, read-out: % activity): 0%
- inhibition at 4 g/ha (Commelina benghalensis; PRE, COMBE): 25%
- inhibition at 8 g/ha (Commelina benghalensis; PRE, COMBE, use rate 8 gai/ha, read-out: % activity): 75%
- pest or weed control at 2 g/ha (Euphorbia heterophylla; 432 h, PRE, EPHHL, I-3 solo 2 gai/ha, 18 DAT): 15%
- pest or weed control at 8 g/ha (Euphorbia heterophylla; 432 h, PRE, EPHHL, I-3 solo 8 gai/ha, 18 DAT): 75%
- inhibition at 2 g/ha (Euphorbia heterophylla; 480 h, EPHHL PRE, 20 DAT, use rate 2 gai/ha, read-out: % activity): 0%
- inhibition at 8 g/ha (Euphorbia heterophylla; 480 h, EPHHL PRE, 20 DAT, use rate 8 gai/ha, read-out: % activity): 50%
- pest or weed control at 8 g/ha (Euphorbia heterophylla; 480 h, PRE, 8 gai/ha, 20 DAT): 50%
- inhibition at 2 g/ha (Euphorbia heterophylla; 480 h, PRE, EPHHL, 2 gai/ha, 20 DAT, read-out: % activity solo application): 5%
- inhibition at 8 g/ha (Euphorbia heterophylla; 480 h, PRE, EPHHL, 8 gai/ha, 20 DAT, read-out: % activity solo application): 50%
- pest or weed control at 8 g/ha (Euphorbia heterophylla; 480 h, PRE, EPHHL, I-3 solo 8 gai/ha, 20 DAT): 20%
- inhibition at 2 g/ha (Euphorbia heterophylla; 480 h, PRE, EPHHL, use rate 2 gai/ha, 20 DAT, read-out: solo application % activity): 10%
- inhibition at 8 g/ha (Euphorbia heterophylla; 480 h, PRE, EPHHL, use rate 8 gai/ha, 20 DAT, read-out: solo application % activity): 50%
- inhibition at 8 g/ha (Euphorbia heterophylla; EPHHL PRE, use rate 8 gai/ha, read-out: % activity): 55%
- inhibition at 2 g/ha (Euphorbia heterophylla; PRE, EPPHL, use rate 2 gai/ha, read-out: % activity): 45%
- inhibition at 8 g/ha (Euphorbia heterophylla; PRE, EPPHL, use rate 8 gai/ha, read-out: % activity): 80%
- pest or weed control at 2 g/ha (Setaria viridis; PRE, 2 gai/ha): 60%
- inhibition at 2 g/ha (Setaria viridis; PRE, SETVI, 2 gai/ha, read-out: % activity solo application): 50%
- inhibition at 2 g/ha (Setaria viridis; PRE, SETVI, use rate 2 gai/ha, read-out: solo application % activity): 20%
- inhibition at 2 g/ha (Setaria viridis; SETVI PRE, use rate 2 gai/ha, read-out: % activity): 60%
- % activity (Echinochloa crus-galli; ECHCG POST, use rate 2 gai/ha): 25%
- % activity (Echinochloa crus-galli; ECHCG POST, use rate 8 gai/ha): 40%
- inhibition at 2 g/ha (Echinochloa crus-galli; Echinochloa crus-galli, post-emergence, 432 h, POST, ECHCG, 2 gai/ha, 18 DAT, read-out: % activity solo application): 0%
- pest or weed control at 2 g/ha (Echinochloa crus-galli; Echinochloa crus-galli, post-emergence, 432 h, POST, ECHCG, I-3 solo 2 gai/ha, 18 DAT): 0%
- inhibition at 2 g/ha (Echinochloa crus-galli; Echinochloa crus-galli, post-emergence, 480 h, ECHCG POST, 20 DAT, use rate 2 gai/ha, read-out: % activity): 10%
- inhibition at 8 g/ha (Echinochloa crus-galli; Echinochloa crus-galli, post-emergence, 480 h, ECHCG POST, 20 DAT, use rate 8 gai/ha, read-out: % activity): 55%
- pest or weed control at 2 g/ha (Echinochloa crus-galli; Echinochloa crus-galli, post-emergence, 480 h, POST, 2 gai/ha, 20 DAT): 10%
- inhibition at 2 g/ha (Echinochloa crus-galli; Echinochloa crus-galli, post-emergence, 480 h, POST, ECHCG, use rate 2 gai/ha, 20 DAT, read-out: solo application % activity): 0%
- inhibition at 4 g/ha (Echinochloa crus-galli; Echinochloa crus-galli, post-emergence, 480 h, POST, ECHCG, use rate 4 gai/ha, 20 DAT): 35%
- inhibition at 8 g/ha (Echinochloa crus-galli; Echinochloa crus-galli, post-emergence, 480 h, POST, ECHCG, use rate 8 gai/ha, 20 DAT, read-out: % activity): 50%
- inhibition at 8 g/ha (Echinochloa crus-galli; Echinochloa crus-galli, post-emergence, 480 h, POST, ECHCG, use rate 8 gai/ha, 20 DAT, read-out: solo application % activity): 10%
- inhibition at 8 g/ha (Echinochloa crus-galli; Echinochloa crus-galli, post-emergence, ECHCG POST, use rate 8 gai/ha, read-out: % activity): 35%
- inhibition at 2 g/ha (Echinochloa crus-galli; Echinochloa crus-galli, post-emergence, POST, ECHCG, use rate 2 gai/ha, read-out: % activity): 30%
- inhibition at 2 g/ha (Brachiaria decumbens): 30%
